PMC6364417, “Kinase inhibitor library screening identifies synergistic drug combinations effective in sensitive and resistant melanoma cells” (Journal of Experimental & Clinical Cancer Research : CR, 2019)
Read-outs that look alike come from different tables or passages of the source.

Assays:
Assay in all cases: Kinase inhibitor library screening, PrestoBlue cell viability, 1 or 10 μM, 72 h
[1] = system: 501Mel cells (parental); settings: for Cell viability in kinase inhibitor library screening, 501Mel Parental, 1μΜ / Cell viability in kinase inhibitor library screening, 501Mel Parental, 10μΜ: in %
In short: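 Sensitive parental cells and their resistant derivatives were exposed to library compounds for 72 h. Values represent viability as a percentage of untreated cells.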

[2] = system: 501Mel-GP cells (Dabrafenib-resistant); settings: for Cell viability in kinase inhibitor library screening, 501Mel GP, 1μΜ / Cell viability in kinase inhibitor library screening, 501Mel GP, 10μΜ: in %
[3] = system: 501Mel-XP cells (Vemurafenib-resistant); settings: for Cell viability in kinase inhibitor library screening, 501Mel XP, 1μΜ / Cell viability in kinase inhibitor library screening, 501Mel XP, 10μΜ: in %
[4] = system: A375 cells (parental)
[5] = system: A375-GP cells (Dabrafenib-resistant)
[6] = system: A375-XP cells (Vemurafenib-resistant)
[7] = system: IGR37 cells (parental); settings: for Cell viability in kinase inhibitor library screening, IGR37 Parental, 1μΜ / Cell viability in kinase inhibitor library screening, IGR37 Parental, 10μΜ: in %
[8] = system: IGR37-GP cells (Dabrafenib-resistant); settings: for Cell viability in kinase inhibitor library screening, IGR37 GP, 1μΜ: in %
[9] = system: IGR37-XP cells (Vemurafenib-resistant); settings: for Cell viability in kinase inhibitor library screening, IGR37 XP, 1μΜ: in %

Compound	Cell viability in kinase inhibitor library screening, 501Mel Parental, 1μΜ ([1]; 501Mel Parental, 1μΜ, 72 h)	Cell viability in kinase inhibitor library screening, 501Mel Parental, 10μΜ ([1]; 501Mel Parental, 10μΜ, 72 h)	Cell viability in kinase inhibitor library screening, 501Mel GP, 1μΜ ([2]; 501Mel GP, 1μΜ, 72 h)	Cell viability in kinase inhibitor library screening, 501Mel GP, 10μΜ ([2]; 501Mel GP, 10μΜ, 72 h)	Cell viability in kinase inhibitor library screening, 501Mel XP, 1μΜ ([3]; 501Mel XP, 1μΜ, 72 h)	Cell viability in kinase inhibitor library screening, 501Mel XP, 10μΜ ([3]; 501Mel XP, 10μΜ, 72 h)	Cell viability in kinase inhibitor library screening, A375 Parental, 10μΜ ([4]; A375 Parental, 10μΜ, 72 h)	Cell viability in kinase inhibitor library screening, A375 Parental, 1μΜ ([4]; A375 Parental, 1μΜ, 72 h)	Cell viability in kinase inhibitor library screening, A375 GP, 1μΜ ([5]; A375 GP, 1μΜ, 72 h)	Cell viability in kinase inhibitor library screening, A375 GP, 10μΜ ([5]; A375 GP, 10μΜ, 72 h)	Cell viability in kinase inhibitor library screening, A375 XP, 1μΜ ([6]; A375 XP, 1μΜ, 72 h)	Cell viability in kinase inhibitor library screening, A375 XP, 10μΜ ([6]; A375 XP, 10μΜ, 72 h)	Cell viability in kinase inhibitor library screening, IGR37 Parental, 1μΜ ([7]; IGR37 Parental, 1μΜ, 72 h)	Cell viability in kinase inhibitor library screening, IGR37 Parental, 10μΜ ([7]; IGR37 Parental, 10μΜ, 72 h)	Cell viability in kinase inhibitor library screening, IGR37 GP, 10μΜ ([8]; IGR37 GP, 10μΜ, 72 h) [%]	Cell viability in kinase inhibitor library screening, IGR37 GP, 1μΜ ([8]; IGR37 GP, 1μΜ, 72 h)	Cell viability in kinase inhibitor library screening, IGR37 XP, 10μΜ ([9]; IGR37 XP, 10μΜ, 72 h) [%]	Cell viability in kinase inhibitor library screening, IGR37 XP, 1μΜ ([9]; IGR37 XP, 1μΜ, 72 h)	further results
CC[C@@H]1C(=O)N(C)c2cnc(Nc3ccc(C(=O)N[C@H]4CC[C@H](N5CCN(CC6CC6)CC5)CC4)cc3OC)nc2N1C(C)C [BI6727 (Volasertib)]	63.2	1.3	26.5	0.363	9.9	0.4	29.8	21.7	22.8	28.0	37.1	16.8	36.2	43.0	8.8	75.9	2.7	65.8	
Cc1cc(Nc2ncnc3ccc(NC4=NC(C)(C)CO4)cc23)ccc1Oc1ccn2ncnc2c1 [Arry-380]																			viability at 1 µM ([1]; Homo sapiens, 72 h, read-out: cell viability, 501Mel Parental, 1μΜ): 103%; viability at 10 µM ([1]; Homo sapiens, 72 h, read-out: cell viability, 501Mel Parental, 10μΜ): 69.6%; viability at 1 µM ([2]; Homo sapiens, 72 h, read-out: cell viability, 501Mel GP, 1μΜ): 101%; viability at 10 µM ([2]; Homo sapiens, 72 h, read-out: cell viability, 501Mel GP, 10μΜ): 56.8%; viability at 1 µM ([3]; Homo sapiens, 72 h, read-out: cell viability, 501Mel XP, 1μΜ): 117%; viability at 10 µM ([3]; Homo sapiens, 72 h, read-out: cell viability, 501Mel XP, 10μΜ): 52.3%; viability at 1 µM ([4]; Homo sapiens, A-375, 72 h, read-out: cell viability, A375 Parental, 1μΜ): 105%; viability at 10 µM ([4]; Homo sapiens, A-375, 72 h, read-out: cell viability, A375 Parental, 10μΜ): 89.6%; viability at 1 µM ([5]; Homo sapiens, A-375, 72 h, read-out: cell viability, A375 GP, 1μΜ): 105%; viability at 10 µM ([5]; Homo sapiens, A-375, 72 h, read-out: cell viability, A375 GP, 10μΜ): 77.8%; viability at 1 µM ([6]; Homo sapiens, A-375, 72 h, read-out: cell viability, A375 XP, 1μΜ): 106%; viability at 10 µM ([6]; Homo sapiens, A-375, 72 h, read-out: cell viability, A375 XP, 10μΜ): 80.2%; viability at 1 µM ([7]; Homo sapiens, IGR-37, 72 h, read-out: cell viability, IGR37 Parental, 1μΜ): 108%; viability at 10 µM ([7]; Homo sapiens, IGR-37, 72 h, read-out: cell viability, IGR37 Parental, 10μΜ): 103%; viability at 1 µM ([8]; Homo sapiens, IGR-37, 72 h, read-out: cell viability, IGR37 GP, 1μΜ): 96.4%; viability at 10 µM ([8]; Homo sapiens, IGR-37, 72 h, read-out: cell viability, IGR37 GP, 10μΜ): 57.2%; viability at 1 µM ([9]; Homo sapiens, IGR-37, 72 h, read-out: cell viability, IGR37 XP, 1μΜ): 99.7%; viability at 10 µM ([9]; Homo sapiens, IGR-37, 72 h, read-out: cell viability, IGR37 XP, 10μΜ): 24.3%
CO[C@H]1C[C@@H]2CC[C@@H](C)[C@@](O)(O2)C(=O)C(=O)N2CCCC[C@H]2C(=O)O[C@H]([C@H](C)C[C@@H]2CC[C@@H](O)[C@H](OC)C2)CC(=O)[C@H](C)/C=C(\C)[C@@H](O)[C@@H](OC)C(=O)[C@H](C)C[C@H](C)/C=C/C=C/C=C/1C [Rapamycin (Sirolimus)]	84.7	77.5	69.9	59.4	56.7	42.7	72.3	80.2	80.8	79.4	79.4	83.3	79.9	81.5	76.7	92.2	49.9	96.0	
COc1ccc(S(=O)(=O)N(C(C)=O)c2ccccc2/C=C/c2cc[n+]([O-])cc2)cc1 [HMN-214]																			Cell viability in kinase inhibitor library screening, 501Mel Parental, 1μΜ [1]: 17.6; Cell viability in kinase inhibitor library screening, 501Mel Parental, 10μΜ [1]: 20.7; Cell viability in kinase inhibitor library screening, 501Mel GP, 1μΜ [2]: 21.4; Cell viability in kinase inhibitor library screening, 501Mel GP, 10μΜ [2]: 22.7; Cell viability in kinase inhibitor library screening, 501Mel XP, 1μΜ [3]: 14.9; Cell viability in kinase inhibitor library screening, 501Mel XP, 10μΜ [3]: 12.4; Cell viability in kinase inhibitor library screening, A375 Parental, 1μΜ [4]: 34.0; Cell viability in kinase inhibitor library screening, A375 Parental, 10μΜ [4]: 23.3; Cell viability in kinase inhibitor library screening, A375 GP, 1μΜ [5]: 42.6; Cell viability in kinase inhibitor library screening, A375 GP, 10μΜ [5]: 20.9; Cell viability in kinase inhibitor library screening, A375 XP, 1μΜ [6]: 37.9; Cell viability in kinase inhibitor library screening, A375 XP, 10μΜ [6]: 18.1; Cell viability in kinase inhibitor library screening, IGR37 Parental, 1μΜ [7]: 19.8; Cell viability in kinase inhibitor library screening, IGR37 Parental, 10μΜ [7]: 16.1; Cell viability in kinase inhibitor library screening, IGR37 GP, 10μΜ [8]: 66.9%; Cell viability in kinase inhibitor library screening, IGR37 GP, 1μΜ [8]: 69.1; Cell viability in kinase inhibitor library screening, IGR37 XP, 10μΜ [9]: 28.3%; Cell viability in kinase inhibitor library screening, IGR37 XP, 1μΜ [9]: 57.1
c1cncc(CN2CCC(n3ncc4c(N5CCOCC5)nc(-c5ccc6[nH]ccc6c5)nc43)CC2)c1 [WAY-600]	86.8	3.0	72.3	4.3	56.9	1.0	22.3	84.4	82.4	21.9	76.7	16.9	93.5	26.3	18.4	95.3	4.5	84.1	
MK-2206 dihydrochloride																			cell viability (kinase inhibitor library screening) ([1]; 501Mel Parental, 1μΜ, 72 h): 98.7%; cell viability (kinase inhibitor library screening) ([1]; 501Mel Parental, 10μΜ, 72 h): 7.6%; cell viability (kinase inhibitor library screening) ([2]; 501Mel GP, 1μΜ, 72 h): 90.7%; cell viability (kinase inhibitor library screening) ([2]; 501Mel GP, 10μΜ, 72 h): 28.3%; cell viability (kinase inhibitor library screening) ([3]; 501Mel XP, 1μΜ, 72 h): 69.2%; cell viability (kinase inhibitor library screening) ([3]; 501Mel XP, 10μΜ, 72 h): 1.7%; cell viability (kinase inhibitor library screening) ([4]; A375 Parental, 10μΜ, 72 h): 74.4%; cell viability (kinase inhibitor library screening) ([5]; A375 GP, 1μΜ, 72 h): 96.2%; cell viability (kinase inhibitor library screening) ([5]; A375 GP, 10μΜ, 72 h): 66.2%; cell viability (kinase inhibitor library screening) ([6]; A375 XP, 1μΜ, 72 h): 93.8%; cell viability (kinase inhibitor library screening) ([6]; A375 XP, 10μΜ, 72 h): 54.1%; cell viability (kinase inhibitor library screening) ([7]; IGR37 Parental, 10μΜ, 72 h): 25.6%; cell viability (kinase inhibitor library screening) ([8]; IGR37 GP, 1μΜ, 72 h): 100.0%; cell viability (kinase inhibitor library screening) ([8]; IGR37 GP, 10μΜ, 72 h): 15.9%; cell viability (kinase inhibitor library screening) ([9]; IGR37 XP, 1μΜ, 72 h): 94.6%; cell viability (kinase inhibitor library screening) ([9]; IGR37 XP, 10μΜ, 72 h): 4.2%
O=C1NC(=O)/C(=C/c2ccc3nccc(-c4ccncc4)c3c2)S1 [GSK1059615]	65.3	1.4	45.2	1.5	43.3	0.262	4.4	62.0	59.6	4.2	54.8	3.7	82.5	4.7	6.4	75.2	2.2	58.7	
